Test system: cTnT^R141W transgenic dilated cardiomyopathy mice model
Assay: M-mode echocardiography, cardiac function and morphous, once a month
Type: in vivo
Set-up: CO (Cardiac Output) / LVAW; d (left ventricular anterior wall thickness, end of diastole) / LV Mass (AW) (weight of the left ventricular) / Diameter; d (inner diameter of the left ventricular, end of diastole) / Volume; d (volume of the left ventricular, end of diastole) / SV (Stroke Volume): unit not given here
Conditions: 75 mg/kg in drinking water
Method: The positive mice at 1.5 months old are distributed by weight and cardiac function uniformly into the model group and the ginsenoside Rb1 administration group according to the echocardiography result, and each group comprises twelve mice. Ginsenoside Rb1, 75 mg/kg (State Yao zhun Zi, Yun Nan Tean Na Pharmaceutical Co., Ltd) is put into animal drinking water, and continuously administered for seven months.
Echocardiography detection is performed once a month. Mice were anesthetized with tribromoethanol, scanned by small animal ultrasonic apparatus (Vevo 770 small animal ultrasonic detection system, Canada), with 30 MHz probe, M-mode echocardiography were analyzed: Body weight (BW), LVPW, d (the thickness of the left ventricular posterior wall at the end of the diastole), LVPW, s (the thickness of the left ventricular posterior wall at the end of the systole), LVAW, d (the thickness of the left ventricular anterior wall at the end of the diastole), LVAW, s (the thickness of the left ventricular anterior wall at the end of the systole), LV Mass (the weight of the left ventricular), Diameter, s (the inner diameter of the left ventricular at the end of the systole), Diameter, d (the inner diameter of the left ventricular at the end of the diastole), Volume, s (the volume of the left ventricular at the end of the systole), Volume, d (the volume of the left ventricular at the end of the diastole), SV (Stroke Volume), EF (Ejection Fraction), FS (Fractional Shortening) and CO (Cardiac Output).

Compound: CC(C)=CCC[C@](C)(O[C@@H]1O[C@H](CO[C@@H]2O[C@H](CO)[C@@H](O)[C@H](O)[C@H]2O)[C@@H](O)[C@H](O)[C@H]1O)[C@H]1CC[C@]2(C)[C@@H]1[C@H](O)C[C@@H]1[C@@]3(C)CC[C@H](O[C@@H]4O[C@H](CO)[C@@H](O)[C@H](O)[C@H]4O[C@@H]4O[C@H](CO)[C@@H](O)[C@H](O)[C@H]4O)C(C)(C)[C@@H]3CC[C@]12C [Rb1, ginsenoside Rb1]
- CO (Cardiac Output) (0 month of administration): 19.59 ± 2.99
- Diameter; d (inner diameter of the left ventricular, end of diastole) (0 month of administration): 4.02 ± 0.32
- Diameter; s (inner diameter of the left ventricular, end of systole) (0 month of administration): 2.84 ± 0.41
- EF (Ejection Fraction) (0 month of administration): 57.05 ± 7.87
- FS (Fractional Shortening) (0 month of administration): 29.77 ± 5.07
- LV Mass (AW) (weight of the left ventricular) (0 month of administration): 92.06 ± 17.12
- LVAW; d (left ventricular anterior wall thickness, end of diastole) (0 month of administration): 0.67 ± 0.06
- LVAW; s (left ventricular anterior wall thickness, end of systole) (0 month of administration): 0.99 ± 0.12
- LVPW; d (left ventricular posterior wall thickness, end of diastole) (0 month of administration): 0.67 ± 0.07
- LVPW; s (left ventricular posterior wall thickness, end of systole) (0 month of administration): 0.85 ± 0.06
- SV (Stroke Volume) (0 month of administration): 40.00 ± 4.42
- Volume; d (volume of the left ventricular, end of diastole) (0 month of administration): 71.50 ± 13.77
- Volume; s (volume of the left ventricular, end of systole) (0 month of administration): 31.51 ± 11.53
- CO (Cardiac Output) (1 month of administration): 22.14 ± 2.64
- Diameter; d (inner diameter of the left ventricular, end of diastole) (1 month of administration): 4.33 ± 0.38
- Diameter; s (inner diameter of the left ventricular, end of systole) (1 month of administration): 3.01 ± 0.46
- EF (Ejection Fraction) (1 month of administration): 58.32 ± 7.31
- FS (Fractional Shortening) (1 month of administration): 30.78 ± 4.73
- LV Mass (AW) (weight of the left ventricular) (1 month of administration): 120.38 ± 13.83
- LVAW; d (left ventricular anterior wall thickness, end of diastole) (1 month of administration): 0.84 ± 0.12
- LVAW; s (left ventricular anterior wall thickness, end of systole) (1 month of administration): 1.21 ± 0.13
- LVPW; d (left ventricular posterior wall thickness, end of diastole) (1 month of administration): 0.67 ± 0.06
- LVPW; s (left ventricular posterior wall thickness, end of systole) (1 month of administration): 0.95 ± 0.11
- SV (Stroke Volume) (1 month of administration): 48.69 ± 5.08
- Volume; d (volume of the left ventricular, end of diastole) (1 month of administration): 85.37 ± 17.55
- Volume; s (volume of the left ventricular, end of systole) (1 month of administration): 36.68 ± 13.77
- CO (Cardiac Output) (2 month of administration): 21.89 ± 1.78
- Diameter; d (inner diameter of the left ventricular, end of diastole) (2 month of administration): 4.31 ± 0.27
- Diameter; s (inner diameter of the left ventricular, end of systole) (2 month of administration): 3.15 ± 0.39
- EF (Ejection Fraction) (2 month of administration): 52.93 ± 7.59
- FS (Fractional Shortening) (2 month of administration): 27.23 ± 5.02
- LV Mass (AW) (weight of the left ventricular) (2 month of administration): 111.52 ± 7.92
- LVAW; d (left ventricular anterior wall thickness, end of diastole) (2 month of administration): 0.78 ± 0.05
- LVAW; s (left ventricular anterior wall thickness, end of systole) (2 month of administration): 1.13 ± 0.14
- LVPW; d (left ventricular posterior wall thickness, end of diastole) (2 month of administration): 0.69 ± 0.08
- LVPW; s (left ventricular posterior wall thickness, end of systole) (2 month of administration): 0.88 ± 0.12
- SV (Stroke Volume) (2 month of administration): 43.68 ± 2.20
- Volume; d (volume of the left ventricular, end of diastole) (2 month of administration): 83.96 ± 12.12
- Volume; s (volume of the left ventricular, end of systole) (2 month of administration): 40.29 ± 11.15
- CO (Cardiac Output) (3 month of administration): 22.72 ± 3.18
- Diameter; d (inner diameter of the left ventricular, end of diastole) (3 month of administration): 4.61 ± 0.35
- Diameter; s (inner diameter of the left ventricular, end of systole) (3 month of administration): 3.47 ± 0.48
- EF (Ejection Fraction) (3 month of administration): 48.85 ± 9.39
- FS (Fractional Shortening) (3 month of administration): 24.88 ± 5.88
- LV Mass (AW) (weight of the left ventricular) (3 month of administration): 124.88 ± 20.30
- LVAW; d (left ventricular anterior wall thickness, end of diastole) (3 month of administration): 0.75 ± 0.08
- LVAW; s (left ventricular anterior wall thickness, end of systole) (3 month of administration): 0.98 ± 0.09
- LVPW; d (left ventricular posterior wall thickness, end of diastole) (3 month of administration): 0.71 ± 0.06
- LVPW; s (left ventricular posterior wall thickness, end of systole) (3 month of administration): 0.88 ± 0.11
- SV (Stroke Volume) (3 month of administration): 46.95 ± 6.12
- Volume; d (volume of the left ventricular, end of diastole) (3 month of administration): 98.37 ± 16.57
- Volume; s (volume of the left ventricular, end of systole) (3 month of administration): 51.42 ± 15.53
- CO (Cardiac Output) (4 month of administration): 24.42 ± 1.52
- Diameter; d (inner diameter of the left ventricular, end of diastole) (4 month of administration): 4.56 ± 0.26
